One data set relates to Mucin. Nature of the data set: Mucoadhesion, tensile strength with texture analyzer, towards mucin. The note with it: upper sample Mucin. On the procedure: Mucoadhesion is related to the ability to adhere to the mucosa. […] Hygroscopic formulations absorbs water molecules but at different timescales depending on the composition. Tensile strength using micro balance texture analyzer was used to measure the mucoadhesion. The work needed to separate two layers from each other is calculated as well as the peak measured force.
The microemulsions show quite strong mucoadhesion, with similar tensile strength values. To get some reference values, the mucoadhesion of olive oil, propylene glycol and PGMO were also tested as well as the adhesion of microemulsions towards water. Propylene glycol was chosen to determine if humectant properties on its own had any influence on the adhesion strength.

For data set [1] the following is noted: pure liquids at 25° C.; cited from earlier work.

In the data set with Mucin, `CC(O)CO` (stereo not shown) [Propylene Glycol, propylene glycol] returned a Peak force of 0.50 ± 0.05 kg. In the data set with Mucin (work needed to separate layers), this molecule had a Mucoadhesion of 0.051 ± 0.009 kg·s. Moreover, the Surface tension in data set [1] is reported as 45.6 mN/m.

As for `OCC(O)CO` [glycerol], the Surface tension in data set [1] is 76 mN/m.

These data come from patent US20170319641A1, “MUCOADHESIVE EMOLLIENT” (BIOGLAN AB, priority 2014, published 2017).
